In patent US5367110A, “Transgenic plants overproducing threonine and lysine” (Yeda Research and Development Co. Ltd., priority 1990, dated 1994):
Entries after “also recorded” stand apart in the source; their conditions may differ. Where two headings read alike, the source gives them in different places.

What was measured:
DHPS = molecular target: T1, DHPS (Nicotiana tabacum, UniProt Q42948); assay: DHPS activity (O-ABA assay) with increasing lysine, leaf extracts of control nontransformed tobacco; type: biochemical
T1 construct: from tissue; host or cells: leaves of nontransformed tobacco (crude extract)
T1 sequence (Q42948 34-359): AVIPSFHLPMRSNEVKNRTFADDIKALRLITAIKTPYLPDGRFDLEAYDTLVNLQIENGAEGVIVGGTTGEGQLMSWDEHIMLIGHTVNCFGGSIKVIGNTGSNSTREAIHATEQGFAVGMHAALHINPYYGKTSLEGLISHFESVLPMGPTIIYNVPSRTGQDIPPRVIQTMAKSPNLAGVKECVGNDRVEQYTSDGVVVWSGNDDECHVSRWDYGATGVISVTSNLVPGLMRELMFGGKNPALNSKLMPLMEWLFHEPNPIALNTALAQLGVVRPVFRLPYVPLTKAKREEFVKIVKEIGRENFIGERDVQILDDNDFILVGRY
Description: (§1) Transgenic plants were screened for an elevated DHPS activity. DHPS activity was assayed in crude extracts from leaves of transgenic plants by the O-amino-benzaldehyde (O-ABA) assay of Yugari and Gilvarg (Yugari Y. and Gilvarg C., (1965) J. Biol. Chem. 240: 4710-4716) with slight modifications. Leaves from axenic tobacco plants grown in culture were homogenized with a mortar and pestle in an equal volume of cold 100 mM Tris-HCl pH 7.5 containing 1 mM phenylmethylsulfonylfluoride and 0.5 μg/ml leupeptine. Following 5 min centrifugation (16,000 xg, 4° C.) the supernatant was collected and its protein concentration was determined by the method of Bradford.
(§2) DHPS activity was assayed as above but in the presence of increasing lysine concentrations. At each lysine concentration, DHPS activity is presented as a percentage of the activity in extracts with no lysine added (average of two plants for each transformation). (Control)--nontransformed plants; (Cytoplasm)--average DHPS activity of plants A-11 and A-22 containing the cytoplasmic-type E. coli DHPS; (Chloroplast)--average DHPS activity of plants B-7 and B-15 containing the chloroplastic-type E. coli DHPS. The elevated levels of DHPS activity in the transgenic plants clearly resulted from the expression of the E. coli enzyme in them. […] In contrast, the I50 for DHPS inhibition by lysine in the control nontransformed plants was 27 μM.

E. coli DHPS [1] = assay: DHPS activity (O-ABA assay) with increasing lysine, leaf extracts of transgenic tobacco expressing E. coli DHPS; type: biochemical; details: transgenic vs wild type/control plants
Description: as §1, §2

[2] = molecular target: T2, E. coli mutated, desensitized AK (Escherichia coli, UniProt P08660); assay: AK activity with lysine and/or threonine, leaf extracts of transgenic plant E-6; type: biochemical; details: 10 mM lysine, threonine or both; transgenic plant E-6 (mutant bacterial enzyme)
T2 construct: transgenic tobacco plant E-6, crude leaf extract
Description: (§3) Transgenic plants were screened for an elevated AK activity. AK activity was assayed in crude extracts from leaves of transgenic plants by the method of Black and Wright (Black, S., et al. (1955) J. Biol. Chem. 213: 27-38). Leaves from axenic tobacco plants grown on Nitsch minimal medium (Nitsch, J. P. (1969) Phytomorphology 19: 389-404) in Magenta boxes for about one month were homogenized with a mortar and pestle in an equal volume of cold 20 mM potassium phosphate buffer pH 7.0 containing 30 mM β-mercaptoethanol, 0.1 mM L-lysine, 0.1 mM L-threonine, 1 mM phenylmethylsulfonilfluoride and 0.5 mM leupeptin. Following 5 min centrifugation (16,000 .g, 4° C.) the supernatant was collected and its protein concentration was determined by the method of Bradford (Bradford, M. M. (1976) Anal. Biochem. 72: 248-254). Equal amounts of protein were then tested for AK activity. […] The reaction mixture was stopped by addition of 0.25 ml of a 1:1:1 mixture of 10% FeCl3 in 0.1M HCl, 3M HCl and 12% TCA, centrifuged and the optical absorbance of the supernatant at 490 nm was measured.
(§4) AK activity was measured in crude extracts prepared from tobacco leaves as above except that 10 mM lysine, threonine or both amino acids were present in the reaction mixture as indicated on the right. […]

plant DHPSs = details: plant DHPS; read-out: I50 of plant DHPSs, lysine; cited from earlier work
E. coli DHPS [3] = molecular target: T3, E. coli DHPS (Escherichia coli, UniProt P0A6L2); details: cited from earlier work
E. coli DHPS [4] = molecular target: T3, E. coli DHPS; assay: DHPS activity (O-ABA assay) with increasing lysine, leaf extracts of transgenic tobacco expressing E. coli DHPS; type: biochemical; parameters: pea rbcS-3A chloroplast transit peptide (chloroplastic type only; absent in the cytoplasmic type) (N); expressed in transfected cells; host or cells: transgenic tobacco plants (crude leaf extract; A-11 and A-22 cytoplasmic type, B-7 and B-15 chloroplastic type)
Description: as §1, §2

[5] = system: tobacco shoots (control and transgenic plant B-7); assay: Resistance of tobacco shoots to aminoethylcysteine (AEC); type: in vivo; details: 0.1 and 0.15 mM AEC in MS medium; transgenic B-7 (E. coli DHPS) vs control
Description: To test whether the transgenic tobacco plants expressing the E. coli DHPS gene were more resistant to the lysine analog AEC compared to control nontransformed plants, shoots from control plants (FIG. 21, left) and from transgenic tobacco plant B-7 (FIG. 21, right) were dipped in MS medium containing 2 mg/l kinetin, 0.8 mg/l IAA and either 0, 0.1, 0.15 or 0.2 mM AEC.

[6] = system: nontransformed tobacco leaf AK; assay: AK activity with lysine and/or threonine, leaf extracts of nontransformed tobacco; type: biochemical; details: 10 mM lysine, threonine or both; nontransformed (wild type) tobacco leaf extract
Description: as §3, §4

T2 sequence (P08660 2-449, change not shown): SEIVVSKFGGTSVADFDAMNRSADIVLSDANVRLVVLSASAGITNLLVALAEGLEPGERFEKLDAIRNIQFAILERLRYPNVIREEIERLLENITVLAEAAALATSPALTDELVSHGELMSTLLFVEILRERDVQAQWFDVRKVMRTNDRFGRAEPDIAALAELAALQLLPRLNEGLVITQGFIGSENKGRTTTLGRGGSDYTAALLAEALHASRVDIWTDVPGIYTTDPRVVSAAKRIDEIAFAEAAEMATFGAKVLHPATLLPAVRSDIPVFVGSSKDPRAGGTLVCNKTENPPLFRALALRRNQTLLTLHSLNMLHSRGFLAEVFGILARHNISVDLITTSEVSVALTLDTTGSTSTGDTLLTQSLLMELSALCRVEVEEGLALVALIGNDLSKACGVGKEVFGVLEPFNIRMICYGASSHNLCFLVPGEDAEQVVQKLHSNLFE
T3 sequence (P0A6L2 whole entry): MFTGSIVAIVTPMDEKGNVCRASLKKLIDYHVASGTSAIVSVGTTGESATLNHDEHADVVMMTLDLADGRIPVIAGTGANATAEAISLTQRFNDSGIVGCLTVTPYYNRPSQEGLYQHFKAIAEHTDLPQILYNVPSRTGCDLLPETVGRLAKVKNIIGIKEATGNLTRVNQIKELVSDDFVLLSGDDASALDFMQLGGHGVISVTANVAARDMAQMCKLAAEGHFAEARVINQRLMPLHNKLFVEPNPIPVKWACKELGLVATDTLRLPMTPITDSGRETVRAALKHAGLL

Compound	IC50 (DHPS)	sensitivity of DHPS activity in transgenic plants to lysine inhibition compared with control plants (E. coli DHPS [1])	inhibition of AK activity [2]	IC50 (plant DHPSs)	IC50 (E. coli DHPS [3]; read-out: I50 of E. coli DHPS, lysine, E. coli DHPS)	IC50 (E. coli DHPS [3]; read-out: of E. coli DHPS, lysine inhibition, E. coli DHPS (dapA))	inhibition at 1000 µM (E. coli DHPS [4]; 1 mM lysine, read-out: inhibition of bacterial DHPS)	IC50 (E. coli DHPS [4]; transgenic tobacco plants, crude leaf extract, read-out: I50 for DHPS inhibition by lysine)	growth of transgenic shoots compared with control in AEC medium [5]	inhibition of AK activity [6]
NCCCC[C@H](N)C(=O)O [lysine]	27 µM	less sensitive to lysine inhibition; also recorded: much more resistant to feedback inhibition	completely resistant; also recorded: completely unaffected	10 to 50 µM	~1000 µM	1000 µM	~50%	1600 µM	–	–
NCCSC[C@H](N)C(=O)O [AEC, S-(2-aminoethyl)-L-cysteine]	–	–	–	–	–	–	–	–	the transgenic plant clearly grows better than the control; also recorded: much less sensitive	–
C[C@@H](O)[C@H](N)C(=O)O [threonine]	–	–	completely resistant; also recorded: completely unaffected	–	–	–	–	–	–	70%
